# Values joined by “and” are separate entries in the source; they are usually repeats but may differ in a detail not shown here. Equal values may be shown once. “Also recorded” adds a separate entry of the source.
# B1: Glycophorin A: Sialoprotein which contains the NeuAc(2→3)Gal isomer of NeuAc-lactose (protein, UniProt P02724 20-150, looked up)
# Glycophorin-A: LSTTEVAMHTSTSSSVTKSYISSQTNDTHKRDTYAATPRAHEVSEISVRTVYPPEEETGERVQLAHHFSEPEITLIIFGVMAGVIGTILLISYGIRRLIKKSPSDVKPLPSPDTDVPLSSVEIENPETSDQ
# How the values were obtained:
# [1] = test system: Helicobacter pylori; details: in words; cited from earlier work
# [2] = test system: H. pylori; details: material treated with neuraminidase; cited from earlier work
# [3] = test system: H. pylori; details: in words; cited from earlier work
# [4] = in words; cited from earlier work
# [5] = test system: H. pylori binding to HuTu-80 cell monolayer; experiment: H. pylori binding inhibition to HuTu-80 cell monolayers (microtiter, urease readout); format: cell-based, human (HuTu-80); H. pylori; details: for IC50: Homo sapiens, HuTu80; for activity in inhibiting binding of H. pylori cells, in vitro: in words
# Description: The cultures were maintained in Basal medium Eagle containing 10% fetal calf serum in T-75 flasks, at 37° C. and a 5% CO2 atmosphere. Cells were harvested by trypsin/EDTA release and plated on 96-well flat bottom microtiter plates. The microtiter plates were incubated for 2-3 days until the monolayers grew to confluence. Prior to binding inhibition tests, the monolayer was washed with Hanks Balanced Salt solution (HBSS) containing Ca^+2 and Mg^+2, 0.1% BSA, 50 mM HEPES, 0.01 phenol red or HBHPR.
# H. pylori bacteria isolates were obtained from B. Marshall (from the University of Virginia) and grown on sheep blood agar, collected at 48 h, washed and suspended in a binding buffer of HBSS+0.1% bovine serum albumin+50 mM HEPES buffer+0.01% phenol red or HBHPR.
# The same concentration of bacteria and test compound were combined for 10 minutes, then transferred onto the monolayer. Binding was allowed to occur for 20 min at room temperature under mild agitation. The unbound bacteria was washed away with 1 wash of HBHPR, then 2 washes of the same buffer without HEPES buffer (HBPR).
# The presence of bound bacteria is indicated by the presence of bacterial urease which generates NH3, which raises the pH and changes the color to purple, near at OD595.
# IC50 in mg/ml was determined for each compound tested. The test data is reported below in Table 1:
# IC50 S were determined using the HuTu-80 cell line monolayers.
# [6] = test system: H. pylori binding to an erythrocyte receptor; details: cited from earlier work; for hemagglutination inhibition (in words): vs NeuAc(2→6)-lactose / NeuAc(2→3)-lactose
# [7] = test system: H. pylori; experiment: In vivo animal test: H. pylori colonization in gnotobiotic piglets; set-up: bacterial colonies, colony forming units/gram of gastric epithelium, Experiment A / bacterial colonies, colony forming units/gram of gastric epithelium, Experiment B / bacterial colonies, colony forming units/gram of gastric epithelium, mean ± SD: scale not given here
# Description: Gnotobiotic derived piglets (delivered by cesarean section and housed in a germ-free environment) were orally treated with 100 mg of 3'sialyl lactose in 5.0 ml of water.
# (§1) Six day old gnotobiotic piglets were orally treated with seven doses of 100 mg each of 3' sialyl lactose, at about 8 hour intervals. As a control, the piglets were administered water. The third administration of 3' sialyl lactose and control was accompanied with 2×10^9 live H. pylori. Two piglets were administered 3'sialyl lactose and 2 piglets were administered the control.
# as §1, with “Twenty one” for “Six”, “4×10^9” for “2×10^9”, “Four” for “Two”
# The piglets were evaluated by determining bacterial colonies in blood-agar as colony forming units/gram of gastric epithelium (CFU/g). Gastric epithelium homogenates were plated on agar in serial 1:10 dilutions and bacterial colonies were counted on the plates, with 20-200 colonies/plate after 5 days.
# [8] = test system: Helicobacter pylori; experiment: Effectiveness at inhibiting Helicobacter pylori when treating mammals, compared with fetuin; set-up: species or system mammals; H. pylori; details: vs fetuin
# [9] = test system: Y-1 mouse adrenal cells; details: in words; cited from earlier work
molecule,measurement,setting,value
gangliotriaosylceramide,recognition by H. pylori,[1],specifically recognizes
N-acetylneuraminyllactose [reference compound],decrease in MFI upon neuraminidase treatment,[2],16.8%
Colloidal bismuth subcitrate [Colloidal bismuth subcitrate (CBS)],eradication of H. pylori,[3],ability to eradicate H. pylori
same,relapse rates after cessation of therapy,[3],lower relapse rates
same,effectiveness as a histamine H2 antagonist,[4],effective as a histamine H2 antagonist
"OC[C@H]1O[C@@H](O[C@H]2[C@H](O)[C@@H](O)C(O)O[C@@H]2CO)[C@H](O)[C@@H](O)[C@H]1O (stereo partly drawn) [lactose, reference compound]",IC50,[5],> 10 mM
asialofetuin: asialofetuin,decrease in MFI upon neuraminidase treatment,[2],8.6%
phosphatidylethanolamine,recognition by H. pylori,[1],receptor; also recorded: specifically recognizes
gangliotetraosylceramide,recognition by H. pylori,[1],specifically recognizes
#3: fraction # 3 corresponds with pure fetuin,"IC50, Expt C","[5]; HuTu-80, fetuin fraction, Expt C",1300 mg/L
"CC(=O)N[C@H]1[C@H]([C@H](O)[C@H](O)CO)O[C@@](OC[C@H]2O[C@@H](O[C@H]3[C@H](O)[C@@H](O)C(O)O[C@@H]3CO)[C@H](O)[C@@H](O)[C@H]2O)(C(=O)O)C[C@@H]1O (stereo partly drawn) [6' sialyl lactose, N-acetylneuraminyl-α(2→6)-Gal β1→4 Glc, reference compound]",IC50,[5],> 10 mM
"CC(=O)N[C@H]1[C@H]([C@H](O)[C@H](O)CO)O[C@@](O[C@H]2[C@@H](O)[C@@H](CO)O[C@@H](O[C@H]3[C@H](O)[C@@H](O)C(O)O[C@@H]3CO)[C@@H]2O)(C(=O)O)C[C@@H]1O (stereo partly drawn) [3' sialyl lactose, N-acetylneuraminyl-α(2→3)-Gal β1→4 Glc]",hemagglutination inhibition (in words),[6],preferentially inhibited
same,"bacterial colonies, colony forming units/gram of gastric epithelium, mean ± SD",[7]; Experiments A and B together,6.9 ± 5.9 CFU/g
same,H. pylori binding inhibition in mammals,"[7]; in words, validated through in vivo mammalian test data",surprisingly effective inhibitor
same,"bacterial colonies, colony forming units/gram of gastric epithelium, Experiment A","[7]; six day old piglets, oral, seven doses of 100 mg, 8 hour intervals, 2×10^9 live H. pylori, individual animals",5.44 CFU/g and 0 CFU/g
same,"bacterial colonies, colony forming units/gram of gastric epithelium, Experiment B","[7]; twenty one day old piglets, oral, seven doses of 100 mg, 8 hour intervals, 4×10^9 live H. pylori, individual animals",4.46 CFU/g and 25.5 CFU/g and 3.71 CFU/g and 2.48 CFU/g
same,IC50,[5],6 mM
same,"activity in inhibiting binding of H. pylori cells, in vitro",[5],surprisingly strongly inhibits H. pylori
same,times more effective at inhibiting Helicobacter pylori than fetuin,[8],more than 6.41 times
fetuin: Sialoprotein which contains the NeuAc(2→3)Gal isomer of NeuAc-lactose,concentration needed to produce 100% HAI,[6]; hemagglutination inhibition,0.500 mg/mL
same,times as effective as bovine NeuAc-lactose,[6]; hemagglutination inhibition,0.156 times
same,times as effective as α2-Macroglobulin,[6]; hemagglutination inhibition,about 2 times
same,hemagglutination inhibition (in words),[6],"also inhibited H. pylori binding, but at higher concentrations"
same,adherence to Y-1 cells,[9],blocked
same,decrease in MFI upon neuraminidase treatment,[2],29.8%
same,"activity in inhibiting binding of H. pylori cells, in vitro",[5],minimal activity
α2 -Macroglobulin: Sialoprotein which contains the NeuAc(2→3)Gal isomer of NeuAc-lactose,concentration needed to produce 100% HAI,[6]; hemagglutination inhibition,1.000 mg/mL
same,hemagglutination inhibition (in words),[6],"also inhibited H. pylori binding, but at higher concentrations"
B1,concentration needed to produce 100% HAI,[6]; hemagglutination inhibition,0.250 mg/mL
same,hemagglutination inhibition (in words),[6],"also inhibited H. pylori binding, but at higher concentrations"

# — patent US5883079A, “Method for inhibiting H. pylori infection in mammalian tissue” (Neose Technologies, Inc., priority 1998, dated 1999)
